Test results from patent US4175081A, “5-Substituted thiadiazole ureas” (priority 1977, dated 1979).

What was measured:
Cotton (CT) [1] = assay: Post-emergence herbicide test; format: in vivo, Gossypium hirsutum var. DPL smooth leaf; conditions: Gossypium hirsutum, post-emergence, 336 h; 8 lb/acre; two weeks after treatment
In short: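 Cotton (Gossypium hirsutum var. DPL smooth leaf) was grown in 3' plastic pots of potting soil, four seeds per pot, planted at a depth equal to the seed diameter and watered by sub-irrigation. At the stage of expanded cotyledons with the first true leaf 1' long, plants were sprayed post-emergence in a hood with a fixed nozzle over a moving belt. Percent control was rated visually two weeks later.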

[2] = test system: Yellow foxtail grass (YF); assay: Post-emergence herbicide test; format: in vivo, Setaria glauca; conditions: Setaria, 336 h, 8 lb/acre, two weeks after treatment
In short: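 Potted seedlings grown in greenhouse, planting staggered to reach the target stage together, then sprayed post-emergence at 8 lbs actual compound/acre in 38 gallons/acre (4 lbs/acre formulations also prepared). Sub-irrigated afterwards. Injury or control rated visually two weeks after treatment.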

Bean (BN) [3] = assay: Post-emergence herbicide test; format: in vivo, Phaseolus vulgaris var. Black Valentine; conditions: Phaseolus vulgaris, post-emergence, 336 h; 8 lb/acre; two weeks after treatment
In short: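 Snapbean (Phaseolus vulgaris var. Black Valentine) was tested post-emergence. Four seeds were sown in 3' plastic pots of potting soil at a depth equal to the seed diameter, then sub-irrigated in greenhouse trays. Planting dates were staggered so plants were sprayed once primary leaves had expanded, with the growing point at the primary leaf nodes.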

Amaranth pigweed (PW) [4] = assay: Pre-emergence herbicide test; format: in vivo, Amaranthus retroflexus; conditions: 336 h, 8 lb/acre, two weeks after treatment
In short: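 Pigweed was surface-seeded in potted soil one day before spraying at 8 lbs compound per acre, or 4 lbs/acre, in 38 gallons per acre. Pots were kept in the greenhouse with sub-irrigation only; injury or control was rated visually two weeks after treatment.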

Johnson grass (JG) [5] = assay: Post-emergence herbicide test; format: in vivo, Sorgum helepense; conditions: Sorghum halepense, 336 h, 8 lb/acre, two weeks after treatment
In short: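 Greenhouse pot-grown seedlings sprayed post-emergence at 8 lbs compound per acre (some at 4 lbs/acre) in 38 gallons per acre spray volume. Sub-irrigated thereafter. Injury/control rated visually two weeks after treatment.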

[6] = test system: Yellow foxtail grass (YF); assay: Pre-emergence herbicide test; format: in vivo, Setaria glauca; conditions: Setaria, 336 h, 8 lb/acre, two weeks after treatment
In short: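 Seeds surface-sown in potting soil one day before spraying; compounds applied pre-emergence at 8 or 4 lbs/acre in 38 gallons/acre spray. Pots held in greenhouse with sub-irrigation only. Injury or control rated visually two weeks after treatment.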

Bean (BN) [7] = assay: Pre-emergence herbicide test; format: in vivo, Phaseolus vulgaris var. Black Valentine; conditions: Phaseolus vulgaris, 336 h, 8 lb/acre, two weeks after treatment
In short: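 Black Valentine bean was seeded in potting soil one day before spraying. Compound was applied pre-emergence at 8 lbs/acre (also 4 lbs/acre) in 38 gallons per acre. Plants were sub-irrigated and injury or control was rated visually after two weeks.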

[8] = test system: variety of crops and weed species; assay: Pre- and post-emergence herbicide tests, overall assessment of Tables III-VI; format: in vivo; conditions: data of Tables III-VI
In short: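 Crops and weeds grown in potting soil were sprayed at 8 lbs. compound per acre in 38 gallons per acre, pre-emergence pots seeded one day before treatment. Injury or control was visually rated two weeks after treatment.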

Barnyard grass (BG) [9] = assay: Post-emergence herbicide test; format: in vivo; conditions: Echinochloa crus-galli, 336 h, 8 lb/acre, two weeks after treatment
In short: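 Greenhouse pot-grown barnyard grass seedlings sprayed post-emergence at 8 lbs active compound per acre (some at 4 lbs/acre) in 38 gallons per acre, then sub-irrigated. Injury or control rated visually two weeks after treatment.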

Crabgrass (CG) [10] = assay: Pre-emergence herbicide test; format: in vivo, Digitaria sanquinalis; conditions: Digitaria sanguinalis, pre-emergence, 336 h; 8 lb/acre; two weeks after treatment
In short: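 Crabgrass (Digitaria sanquinalis) was surface seeded in 3' plastic pots of potting soil, covered with screened soil, and watered by sub-irrigation in greenhouse trays. Pots were seeded one day before spraying in a hood with a moving belt and fixed nozzle. Plants stayed in the greenhouse on sub-irrigation, and pre-emergence control was rated visually two weeks after treatment.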

Turnip (TP) [11] = assay: Post-emergence herbicide test; format: in vivo, Brassica sp.; conditions: Brassica rapa, post-emergence, 336 h; 8 lb/acre; two weeks after treatment
In short: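 A greenhouse post-emergence herbicide test on turnip. Seeds were sown on the surface of potting soil in 3' plastic pots, lightly covered with screened soil and watered from below. Planting was timed so seedlings had 1 or 2 true leaves above the cotyledons at spraying, done in a hood with a fixed nozzle. Control or injury was scored by eye after two weeks.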

Johnson grass (JG) [12] = assay: Pre-emergence herbicide test; format: in vivo, Sorgum helepense; conditions: Sorghum halepense, 336 h, 8 lb/acre, two weeks after treatment
In short: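 Pots seeded one day before spraying; compound applied pre-emergence at 8 lbs/acre (or 4 lbs/acre) in 38 gallons/acre spray volume. Sub-irrigated in greenhouse; injury/control rated visually two weeks after treatment.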

Barnyard grass (BG) [13] = assay: Pre-emergence herbicide test; format: in vivo; conditions: Echinochloa crus-galli, 336 h, 8 lb/acre, two weeks after treatment
In short: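 Barnyard grass surface-seeded in potting soil and sprayed pre-emergence one day after seeding, at 8 or 4 lb compound/acre in 38 gal/acre spray volume. Pots kept in greenhouse with sub-irrigation only; injury or control rated visually two weeks after treatment.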

Turnip (TP) [14] = assay: Pre-emergence herbicide test; format: in vivo, Brassica sp.; conditions: Brassica rapa, pre-emergence, 336 h; 8 lb/acre; two weeks after treatment
In short: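 Turnip (Brassica sp.) seeds were surface sown in 3' plastic pots of potting soil, covered with a thin layer of screened soil, and sub-irrigated in greenhouse trays. Pots were seeded one day ahead of treatment, sprayed pre-emergence under a hood with a fixed nozzle and moving belt, then kept in the greenhouse.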

Crabgrass (CG) [15] = assay: Post-emergence herbicide test; format: in vivo, Digitaria sanquinalis; conditions: Digitaria sanguinalis, post-emergence, 336 h; 8 lb/acre; two weeks after treatment
In short: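 Crabgrass (Digitaria sanquinalis) was surface seeded individually in 3' plastic pots of potting soil, covered with screened soil, and watered by sub-irrigation in greenhouse trays. Planting was staggered so seedlings reached the target stage together. Post-emergence sprays were applied in a hood with a removable belt and fixed nozzle, and control was visually rated two weeks after treatment.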

Amaranth pigweed (PW) [16] = assay: Post-emergence herbicide test; format: in vivo, Amaranthus retroflexus; conditions: 336 h, 8 lb/acre, two weeks after treatment
In short: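 Pot-grown pigweed was sprayed post-emergence at the 1–2 true-leaf stage with compound at rates equivalent to 8 lbs per acre (formulations also prepared for 4 lbs/acre) in 38 gallons per acre, using a hood with fixed nozzle. Plants were sub-irrigated in the greenhouse, and injury or control was rated visually two weeks after treatment.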

Corn (CN) [17] = assay: Pre-emergence herbicide test; format: in vivo; conditions: Zea mays, 336 h, 8 lb/acre, two weeks after treatment
In short: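 Four corn seeds per pot, sown at seed-diameter depth one day before spraying, got soil surface treatment at 8 lbs/acre (4 lbs/acre formulations also prepared) in 38 gallons/acre. Pots were greenhouse-held with sub-irrigation only. Injury or control was scored visually two weeks after treatment.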

Cotton (CT) [18] = assay: Pre-emergence herbicide test; format: in vivo, Gossypium hirsutum var. DPL smooth leaf; conditions: Gossypium hirsutum, 336 h, 8 lb/acre, two weeks after treatment
In short: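 Crop and weed species seeded one day before treatment, then sprayed pre-emergence at 8 lbs actual compound per acre (also 4 lbs/acre formulations) in 38 gallons per acre. Pots kept in greenhouse with sub-irrigation only; injury or control visually rated two weeks after treatment.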

Corn (CN) [19] = assay: Post-emergence herbicide test; format: in vivo; conditions: Zea mays, 336 h, 8 lb/acre, two weeks after treatment
In short: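 Greenhouse seedlings grown in potting soil and sprayed post-emergence at 8 lbs compound/acre (formulations also made for 4 lbs/acre) in 38 gallons/acre spray volume. Watering by sub-irrigation only. Injury or control rated visually two weeks after treatment.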

SMILES: CNC(=O)Nc1nncs1 [Example 35]
- pest or weed control at 8966.8 g/ha (Cotton (CT) [1]): 50%
- pest or weed control at 8966.8 g/ha [2]: 10%
- pest or weed control at 8966.8 g/ha (Bean (BN) [3]): 30%
- pest or weed control at 8966.8 g/ha (Amaranth pigweed (PW) [4]): 10%
- pest or weed control at 8966.8 g/ha (Johnson grass (JG) [5]): 10%
- pest or weed control at 8966.8 g/ha [6]: 10%
- pest or weed control at 8966.8 g/ha (Bean (BN) [7]): 60%
- herbicidal effectiveness / selectivity, in words [8]: more selective when applied to a certain crop or weed species
- pest or weed control at 8966.8 g/ha (Barnyard grass (BG) [9]): 10%
- pest or weed control at 8966.8 g/ha (Crabgrass (CG) [10]): 10%
- pest or weed control at 8966.8 g/ha (Turnip (TP) [11]): 20%
- pest or weed control at 8966.8 g/ha (Johnson grass (JG) [12]): 10%
- pest or weed control at 8966.8 g/ha (Barnyard grass (BG) [13]): 10%
- pest or weed control at 8966.8 g/ha (Turnip (TP) [14]): 10%
- pest or weed control at 8966.8 g/ha (Crabgrass (CG) [15]): 10%
- pest or weed control at 8966.8 g/ha (Amaranth pigweed (PW) [16]): 100%
- pest or weed control at 8966.8 g/ha (Corn (CN) [17]): 10%
- pest or weed control at 8966.8 g/ha (Cotton (CT) [18]): 100%
- pest or weed control at 8966.8 g/ha (Corn (CN) [19]): 10%
